US11692160B2, “Microfluidic chip, three-dimensional channel structure, cell culture method using same, and activity evaluation method of bioactive substance using same” (THE ASAN FOUNDATION, priority 2016, dated 2023)

What was measured:
[1] = tested on: lung cancer cells (A549); experiment: Evaluation of the pharmacological efficacy of an MMP-1 inhibitor using a microfluidic chip (lung cancer cell travel distance, vascular cell migration area); assay type: cell-based
Protocol: In order to evaluate the efficacy of an anticancer medicine using a microfluidic chip, lung cancer cells (A549, ATCC) were seeded into a microfluidic chip using the same method as in Example 1. Secondarily, vascular cells were seeded (day 0).

[2] = tested on: pancreatic cancer cells (Mia Paca-2); experiment: Evaluation of the pharmacological efficacy of gemcitabine using a microfluidic chip (spread range of cancer cells); assay type: cell-based
Protocol: In order to evaluate the efficacy of an anticancer medicine using a microfluidic chip, pancreatic cancer cells (Mia Paca-2, ATCC) were seeded into a microfluidic chip using the same method as in Example 2. Secondarily, vascular cells (HUVEC, purchased from ATCC) were seeded. Once the cells were confirmed to be attached (day 0: cell seeding date), gemcitabine (Eli Lilly and Company, USA) was administered 3 days later to measure the spread range of the cancer cells. As shown in FIGS. 20A to 20C, the growth and development of cells were observed from the time of cell seeding (day 0) to the 7th day after the drug treatment (day 3). For observation of the cells, an optical microscope image (EVOS, LifeScience, 100 magnification) and a fluorescence microscope image (EVOS, LifeScience, 100 magnification) were superposed. FIGS. 20B and 20C show the results of observation of the cell development using an optical microscope and a fluorescence microscope. The eight images of FIG. 20B, labeled as normal cultures, were those treated with DMSO at day 3 and observed up to day 7. The eight pictures of FIG. 20C, labeled drug treatment, were those treated with gemcitabine on day 3 and observed up to day 7. FIG. 20A is a graph in which the growth width of the cancer cells was statistically quantified from FIGS. 20B and 20C using an Origin […] […]

[3] = A549 with vascular cells in microfluidic chip, inhibitor given 1 day after seeding, increasing concentration (10 μM, 50 μM, 100 μM)

SMILES | metastatic process of lung cancer cells ([1]; A549 cultured in the cell culture device (microfluidic chip)) | migration area of the vascular cells [1, 3] | travel distance of the lung cancer cells [1, 3] | distribution area of the cancer cells ([2]; Mia Paca-2 co-seeded with HUVEC in microfluidic chip, drug on day 3, observed up to day 7, compared with cells not treated with gemcitabine (DMSO)) | growth of pancreatic cancer cells ([2]; Mia Paca-2 in microfluidic chip, gemcitabine on day 3, observed up to day 7)
CNC(=O)[C@H](Cc1c[nH]c2ccccc12)NC(=O)[C@@H](CC(=O)NO)CC(C)C [MMP-1 inhibitor] | inhibits the metastatic process of lung cancer cells | reduced | gradually reduced |  | 
Nc1ccn([C@@H]2O[C@H](CO)[C@@H](O)C2(F)F)c(=O)n1 [gemcitabine, 4-amino-1-(2-deoxy-2,2-difluoro-β-D-erythro-pentofuranosyl)pyrimidin-2(1H)-on] |  |  |  | decreased | inhibits the growth of pancreatic cancer cells
